Data reported in the supplement of paper PMC10307832.

Experiments:
Assay in all cases: relative viability (nuclei count vs DMSO), 5 days (fraction); higher = more cells survive
[1] = test system: NCI-H358
Method in brief: (§1)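 Medians of duplicate plates are given as relative viability. That measure is the nuclei count in treated wells divided by the count in vehicle wells. Counts were taken on 4× images of lung cancer cell lines in 1536-well plates, 5 days after pin-tool dosing the day after seeding with one drug alone or a fixed anchor-drug dose plus five library-drug doses (not always all listed) in √10 steps.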

[2] = test system: LOU-NH91
Method in brief: as §1

[3] = test system: EKVX
Method in brief: as §1

[4] = test system: NCI-H838
Method in brief: as §1

[5] = test system: NCI-H1395
Method in brief: as §1

[6] = test system: NCI-H2085
Method in brief: as §1

[7] = test system: HCC-44
Method in brief: as §1

[8] = test system: NCI-H1734
Method in brief: as §1

[9] = test system: NCI-H1975
Method in brief: as §1

[10] = test system: BEN
Method in brief: as §1

[11] = test system: NCI-H1355
Method in brief: as §1

Compound: CC1(C)CCC(c2ccc(Cl)cc2)=C(CN2CCN(c3ccc(C(=O)NS(=O)(=O)c4ccc(N[C@H](CCN5CCOCC5)CSc5ccccc5)c(S(=O)(=O)C(F)(F)F)c4)cc3)CC2)C1 [Navitoclax] + Cc1nc(NC(=O)N2CCC[C@H]2C(N)=O)sc1-c1ccnc(C(C)(C)C(F)(F)F)c1 [Alpelisib] (partner 2 µM)
- relative viability ([1]; first compound 0.005 µM): 0.817
- relative viability ([1]; first compound 0.01581 µM): 0.955
- relative viability ([1]; first compound 0.05 µM): 1.01
- relative viability ([1]; first compound 0.1581 µM): 1.04
- relative viability ([1]; first compound 0.5 µM): 0.856
- relative viability ([2]; first compound 0.005 µM): 0.729
- relative viability ([2]; first compound 0.01581 µM): 0.809
- relative viability ([2]; first compound 0.05 µM): 0.69
- relative viability ([2]; first compound 0.1581 µM): 0.769
- relative viability ([2]; first compound 0.5 µM): 0.645
- relative viability ([3]; first compound 0.005 µM): 0.828
- relative viability ([3]; first compound 0.01581 µM): 1.15
- relative viability ([3]; first compound 0.05 µM): 0.765
- relative viability ([3]; first compound 0.1581 µM): 0.928
- relative viability ([3]; first compound 0.5 µM): 0.833
- relative viability ([4]; first compound 0.005 µM): 0.96
- relative viability ([4]; first compound 0.01581 µM): 1.1
- relative viability ([4]; first compound 0.05 µM): 1.12
- relative viability ([4]; first compound 0.1581 µM): 1.03
- relative viability ([4]; first compound 0.5 µM): 1.03
- relative viability ([5]; first compound 0.005 µM): 1.05
- relative viability ([5]; first compound 0.01581 µM): 1.26
- relative viability ([5]; first compound 0.05 µM): 1.2
- relative viability ([5]; first compound 0.1581 µM): 1.19
- relative viability ([5]; first compound 0.5 µM): 1.12
- relative viability ([6]; first compound 0.005 µM): 0.944
- relative viability ([6]; first compound 0.01581 µM): 0.996
- relative viability ([6]; first compound 0.05 µM): 0.881
- relative viability ([6]; first compound 0.1581 µM): 0.957
- relative viability ([6]; first compound 0.5 µM): 0.925
- relative viability ([7]; first compound 0.005 µM): 0.736
- relative viability ([7]; first compound 0.01581 µM): 0.805
- relative viability ([7]; first compound 0.05 µM): 0.849
- relative viability ([7]; first compound 0.1581 µM): 0.795
- relative viability ([7]; first compound 0.5 µM): 0.694
- relative viability ([8]; first compound 0.005 µM): 0.618
- relative viability ([8]; first compound 0.01581 µM): 0.779
- relative viability ([8]; first compound 0.1581 µM): 0.645
- relative viability ([8]; first compound 0.5 µM): 0.63
- relative viability ([9]; first compound 0.005 µM): 0.639
- relative viability ([9]; first compound 0.01581 µM): 0.732
- relative viability ([9]; first compound 0.05 µM): 0.752
- relative viability ([9]; first compound 0.1581 µM): 0.653
- relative viability ([9]; first compound 0.5 µM): 0.578
- relative viability ([10]; first compound 0.005 µM): 0.983
- relative viability ([10]; first compound 0.01581 µM): 1.13
- relative viability ([10]; first compound 0.05 µM): 1.02
- relative viability ([10]; first compound 0.1581 µM): 1.08
- relative viability ([10]; first compound 0.5 µM): 0.831
- relative viability ([11]; first compound 0.005 µM): 0.833
- relative viability ([11]; first compound 0.01581 µM): 0.934
